According to ChEMBL document CHEMBL1201862, “PubChem BioAssay data set” (2004):
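Values below derive from 48-hour exposures of cells grown in 96-well plates, with endpoints linearly interpolated between the two concentrations bracketing the appropriate inhibition level. Here, GI50 denotes the concentration required for 50% inhibition of growth.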 Calls of active or inactive are those of the source. Rule as the data show it: active = GI50 up to about 1.1 µM and inactive = higher.

How the values were obtained:
Test in all cases: DTP human tumour cell line panel, 48 h
[1] = test system: IGROV-1
[2] = test system: HL-60
[3] = test system: K562
[4] = test system: UACC-257
[5] = test system: SR
[6] = test system: Malme-3M
[7] = test system: LOX IMVI
[8] = test system: UO-31
[9] = test system: SNB-19
[10] = test system: M14
[11] = test system: NCI-H23
[12] = test system: SK-MEL-28
[13] = test system: SNB-75
[14] = test system: MOLT-4
[15] = test system: UACC-62
[16] = test system: A498
[17] = test system: RXF 393
[18] = test system: NCI-H226

Measured: GI50

CCCCCCCCCCCOC(=S)NC(C)C
inactive: [1] 20.6 µM | [2] 15.6 µM | [3] 21.2 µM | [4] 19.1 µM | [5] 20.5 µM | [6] 21.8 µM | [7] 16.7 µM | [8] 15.8 µM | [9] 29.6 µM | [10] 23.2 µM | [11] 19.3 µM | [12] 20.7 µM | [13] 23.1 µM | [14] 16.7 µM | [15] 15.5 µM | [16] 19.6 µM | [17] 19.8 µM

NC1N=Nc2ccccc21 (configuration not stated)
inactive: [1] > 100 µM | [2] > 100 µM | [3] > 100 µM | [4] > 100 µM | [5] > 100 µM | [6] > 100 µM | [7] > 100 µM | [8] > 100 µM | [9] > 100 µM | [10] > 100 µM | [11] > 100 µM | [12] > 100 µM | [13] > 100 µM | [14] > 100 µM | [18] > 100 µM | [17] > 100 µM

COc1ccc2c(c1OC)C(=O)C2
inactive: [2] > 100 µM | [3] > 10 µM | [4] > 100 µM | [5] > 100 µM | [6] > 100 µM | [7] > 100 µM | [8] > 100 µM | [9] > 100 µM | [10] > 100 µM | [11] > 100 µM | [12] > 100 µM | [13] > 100 µM | [14] > 100 µM | [15] > 100 µM | [18] > 100 µM | [17] > 100 µM

COc1ccc(/C=C/c2cc(OC)c(O[Si](C)(C)C(C)(C)C)c(OC)c2)cc1
inactive: [1] > 100 µM | [3] 41.9 µM | [4] 28.4 µM | [5] > 10 µM | [6] 24.2 µM | [8] > 100 µM | [9] > 100 µM | [10] > 100 µM | [11] 17.2 µM | [12] 6.24 µM | [13] 84.7 µM | [14] 63.4 µM | [15] 75.2 µM | [18] 30.3 µM | [16] > 100 µM

Cc1nn(-c2nc3ccccc3s2)c2c1C(=O)c1ccccc1-2
inactive: [1] > 100 µM | [2] > 100 µM | [3] > 100 µM | [4] > 100 µM | [5] > 100 µM | [6] > 100 µM | [7] > 100 µM | [8] > 100 µM | [9] > 100 µM | [10] > 100 µM | [11] > 100 µM | [12] > 100 µM | [13] > 100 µM | [15] > 100 µM | [16] > 100 µM | [17] 62.5 µM

O=C(/C=N/c1ccccc1[S-])c1ccco1.O=C(/C=N/c1ccccc1[S-])c1ccco1.[Zn+2]
inactive: [1] 5.14 µM | [2] 3.56 µM | [3] 18.9 µM | [4] 12.5 µM | [5] 6.58 µM | [6] 10 µM | [7] 7.46 µM | [8] 2.99 µM | [9] 5.78 µM | [10] 6.53 µM | [11] 5.41 µM | [12] 10.7 µM | [13] 8.28 µM | [14] 5.2 µM | [15] 15.6 µM | [16] 21.5 µM

O=[N+]([O-])c1ccc(C2CC(c3ccc(NCc4nc5ccccc5[nH]4)cc3)=NO2)cc1 (configuration not stated)
inactive: [1] 75.7 µM | [2] 20.4 µM | [3] 21.1 µM | [5] 4.93 µM | [6] 34.4 µM | [7] 35.5 µM | [8] > 100 µM | [9] 37.3 µM | [10] 33.5 µM | [11] 34.6 µM | [12] > 100 µM | [13] > 100 µM | [14] 6.92 µM | [15] 70.3 µM | [16] 15.3 µM | [17] > 100 µM
